According to ChEMBL document CHEMBL3865822, “New palbociclib analogues modified at the terminal piperazine ring and their anticancer activities” (Eur J Med Chem, 2016):
The source made the active and inactive calls. The calls are words filed in the database; no cut-off is given here.

Columns and labels:
[1] = Cytotoxicity against human MCF7 cells assessed as reduction in cell viability after 48 hrs by CCK8 assay; format: functional, cell-based; conditions: MCF7, 48 h
[2] = biological target: Cyclin-dependent kinase 4 (Homo sapiens, UniProt P11802); experiment: Inhibition of CDK4 (unknown origin) using histone H1 as substrate after 10 mins in presence of [gamma32P]ATP
[3] = biological target: Cyclin-dependent kinase 6 (Homo sapiens, UniProt Q00534); experiment: Inhibition of CDK6 (unknown origin) using histone H1 as substrate after 10 mins in presence of [gamma32P]ATP
[4] = Cytotoxicity against human MDA-MB-453 cells assessed as reduction in cell viability after 48 hrs by CCK8 assay; format: functional, cell-based; conditions: MDA-MB-453, 48 h
[5] = Cytotoxicity against human MDA-MB-231 cells assessed as reduction in cell viability after 48 hrs by CCK8 assay; format: functional, cell-based; conditions: MDA-MB-231, 48 h
MCF7 [6] = experiment: Antitumor activity against human […] human MCF7 cells xenografted in RNU rat assessed as tumor growth inhibition at 100 mg/kg/day, ig administered for 14 days measured on day 15; format: functional, organism-based
MCF7 [7] = experiment: Antitumor activity against […] human MCF7 cells xenografted in RNU rat assessed as tumor growth inhibition at 128.8 mg/kg/day, ig administered for 14 days measured on day 15; format: functional, organism-based
Rattus norvegicus [8] = experiment: Toxicity in RNU rat xenografted with human MCF7 cells assessed as reduction in body weight at 128.8 mg/kg/day, ig administered for 14 days measured daily during compound dosing; format: organism-based; conditions: in vivo, po, 336 h
MCF7 [9] = experiment: Antitumor activity against […] human MCF7 cells xenografted in RNU rat assessed as tumor growth inhibition at 122.4 mg/kg/day, ig administered for 14 days measured on day 15; format: functional, organism-based
Rattus norvegicus [10] = experiment: Toxicity in RNU rat xenografted with human MCF7 cells assessed as reduction in body weight at 122.4 mg/kg/day, ig administered for 14 days measured daily during compound dosing; format: organism-based; conditions: in vivo, po, 336 h

Chain of Cyclin-dependent kinase 6 (Q00534 whole entry): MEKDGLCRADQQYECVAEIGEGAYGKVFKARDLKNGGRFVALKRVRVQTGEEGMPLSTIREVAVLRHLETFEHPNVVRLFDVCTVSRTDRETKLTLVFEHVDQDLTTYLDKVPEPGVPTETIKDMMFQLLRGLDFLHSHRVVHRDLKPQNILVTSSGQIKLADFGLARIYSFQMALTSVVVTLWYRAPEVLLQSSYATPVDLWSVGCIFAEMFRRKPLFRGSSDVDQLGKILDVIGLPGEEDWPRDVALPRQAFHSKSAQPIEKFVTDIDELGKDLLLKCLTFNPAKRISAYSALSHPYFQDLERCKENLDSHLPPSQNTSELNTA
Chain of Cyclin-dependent kinase 4 (P11802 whole entry): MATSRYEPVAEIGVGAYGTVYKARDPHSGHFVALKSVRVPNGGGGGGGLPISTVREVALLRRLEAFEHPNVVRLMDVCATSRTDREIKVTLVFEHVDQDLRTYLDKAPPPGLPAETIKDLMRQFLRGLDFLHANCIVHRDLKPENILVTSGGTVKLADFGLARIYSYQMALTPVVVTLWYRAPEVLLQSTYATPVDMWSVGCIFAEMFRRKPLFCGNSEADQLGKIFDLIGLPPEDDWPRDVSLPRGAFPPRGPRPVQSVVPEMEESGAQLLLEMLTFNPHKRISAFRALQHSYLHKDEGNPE

In the case of `CC(=O)c1c(C)c2cnc(Nc3ccc(N4CCN(C(=O)CC#N)CC4)cn3)nc2n(C2CCCC2)c1=O`, the IC50 [1] is reported as 1.52 µM.
With `CC(=O)c1c(C)c2cnc(Nc3ccc(N4CCN(C(=O)OC(C)C)CC4)cn3)nc2n(C2CCCC2)c1=O` the IC50 [1] was > 2 µM.
In the case of `CCOC(=O)CN1CCN(c2ccc(Nc3ncc4c(C)c(C(C)=O)c(=O)n(C5CCCC5)c4n3)nc2)CC1`, the IC50 [1] is reported as > 2 µM.
With `CC(=O)c1c(C)c2cnc(Nc3ccc(N4CCN(C(=O)OCC(C)C)CC4)cn3)nc2n(C2CCCC2)c1=O` the IC50 [1] was > 2 µM.
Work on `CCN1CCN(c2ccc(Nc3ncc4c(C)c(C(C)=O)c(=O)n(C5CCCC5)c4n3)nc2)CC1` yielded an IC50 [1] of 0.542 µM, an IC50 [2] of 0.025 µM and an IC50 [3] of 0.034 µM. For the same compound, the IC50 [4] was 0.487 µM and the IC50 [5] was > 1 µM.
For `CCCCCOC(=O)N1CCN(c2ccc(Nc3ncc4c(C)c(C(C)=O)c(=O)n(C5CCCC5)c4n3)nc2)CC1`, the IC50 [1] was > 2 µM.
For `CCOC(=O)CCN1CCN(c2ccc(Nc3ncc4c(C)c(C(C)=O)c(=O)n(C5CCCC5)c4n3)nc2)CC1`, the IC50 [1] was > 2 µM.
With `CCCCOC(=O)N1CCN(c2ccc(Nc3ncc4c(C)c(C(C)=O)c(=O)n(C5CCCC5)c4n3)nc2)CC1` the IC50 [1] was > 2 µM.
For `COCCN1CCN(c2ccc(Nc3ncc4c(C)c(C(C)=O)c(=O)n(C5CCCC5)c4n3)nc2)CC1`, the IC50 [1] was 0.893 µM.
With `CC(=O)c1c(C)c2cnc(Nc3ccc(N4CCN(C(C)=O)CC4)cn3)nc2n(C2CCCC2)c1=O` the IC50 [1] was > 2 µM.
In the case of `CCCC(=O)OCN1CCN(c2ccc(Nc3ncc4c(C)c(C(C)=O)c(=O)n(C5CCCC5)c4n3)nc2)CC1`, the IC50 [1] is reported as > 2 µM.
In the case of `CCCOC(=O)N1CCN(c2ccc(Nc3ncc4c(C)c(C(C)=O)c(=O)n(C5CCCC5)c4n3)nc2)CC1`, the IC50 [1] is reported as > 2 µM.
With `CC(=O)c1c(C)c2cnc(Nc3ccc(N4CCNCC4)cn3)nc2n(C2CCCC2)c1=O` [PALBOCICLIB] the IC50 [1] was 0.24 µM, the IC50 [4] was 0.137 µM and the IC50 [5] was 0.58 µM. For the same compound, the TGI (MCF7 [6]) was “Active”.
`COCCCNCC(=O)N1CCN(c2ccc(Nc3ncc4c(C)c(C(C)=O)c(=O)n(C5CCCC5)c4n3)nc2)CC1` gave an IC50 [1] of 0.105 µM, an IC50 [2] of 0.013 µM and an IC50 [3] of 0.018 µM. For the same compound, the IC50 [4] was 0.093 µM, the IC50 [5] was 0.559 µM and the TGI (MCF7 [7]) was “Active”. The Activity (Rattus norvegicus [8]) was “Non-Toxic”.
For `CC(=O)c1c(C)c2cnc(Nc3ccc(N4CCN(C(=O)CCC(=O)O)CC4)cn3)nc2n(C2CCCC2)c1=O`, the IC50 [1] was > 2 µM.
With `CC(=O)c1c(C)c2cnc(Nc3ccc(N4CCN(C(=O)CNCCN)CC4)cn3)nc2n(C2CCCC2)c1=O` the IC50 [1] was 0.223 µM, the IC50 [2] was 0.019 µM and the IC50 [3] was 0.023 µM. For the same compound, the IC50 [4] was 0.259 µM, the IC50 [5] was 0.436 µM and the TGI (MCF7 [9]) was “Active”. The Activity (Rattus norvegicus [10]) was “Non-Toxic”.
For `CC(=O)c1c(C)c2cnc(Nc3ccc(N4CCN(CCC(=O)O)CC4)cn3)nc2n(C2CCCC2)c1=O`, the IC50 [1] was > 2 µM.
For `CC(=O)OCOC(=O)N1CCN(c2ccc(Nc3ncc4c(C)c(C(C)=O)c(=O)n(C5CCCC5)c4n3)nc2)CC1`, the IC50 [1] was 0.371 µM, the IC50 [2] was 0.032 µM and the IC50 [3] was 0.028 µM. The IC50 [4] was 0.424 µM and the IC50 [5] was > 1 µM.
For `COC(=O)N1CCN(c2ccc(Nc3ncc4c(C)c(C(C)=O)c(=O)n(C5CCCC5)c4n3)nc2)CC1`, the IC50 [1] was > 2 µM.
In the case of `CC(=O)c1c(C)c2cnc(Nc3ccc(N4CCN(CCO)CC4)cn3)nc2n(C2CCCC2)c1=O`, the IC50 [1] is reported as 0.689 µM.
